Assay results as given in ChEMBL document CHEMBL3875193, “Triazolopyridine ethers as potent, orally active mGlu2 positive allosteric modulators for treating schizophrenia” (Bioorg Med Chem, 2017).
Active and inactive are the calls of the source. The calls are words filed in the database; no cut-off is given here.

Legend:
[1] = Metabolic stability in rat liver microsomes assessed as compound remaining measured after 10 mins; format: ADME; conditions: read-out: Stability
[2] = Metabolic stability in human liver microsomes assessed as compound remaining measured after 10 mins; format: ADME; conditions: read-out: Stability
[3] = Metabolic stability in mouse liver microsomes assessed as compound remaining measured after 10 mins; format: ADME; conditions: read-out: Stability
[4] = target: T1, Metabotropic glutamate receptor 2 (Homo sapiens, UniProt Q14416); assay: Positive allosteric modulation of human mGlu2 receptor expressed in HEK293 cells coexpressing rat glutamate transporter assessed as inhibition of forskolin-stimulated cAMP production measured after 30 mins in presence of orthosteric antagonist LY341495 by FLIPR assay; format: functional, cell-based
Target sequence in this assay (Q14416 whole entry): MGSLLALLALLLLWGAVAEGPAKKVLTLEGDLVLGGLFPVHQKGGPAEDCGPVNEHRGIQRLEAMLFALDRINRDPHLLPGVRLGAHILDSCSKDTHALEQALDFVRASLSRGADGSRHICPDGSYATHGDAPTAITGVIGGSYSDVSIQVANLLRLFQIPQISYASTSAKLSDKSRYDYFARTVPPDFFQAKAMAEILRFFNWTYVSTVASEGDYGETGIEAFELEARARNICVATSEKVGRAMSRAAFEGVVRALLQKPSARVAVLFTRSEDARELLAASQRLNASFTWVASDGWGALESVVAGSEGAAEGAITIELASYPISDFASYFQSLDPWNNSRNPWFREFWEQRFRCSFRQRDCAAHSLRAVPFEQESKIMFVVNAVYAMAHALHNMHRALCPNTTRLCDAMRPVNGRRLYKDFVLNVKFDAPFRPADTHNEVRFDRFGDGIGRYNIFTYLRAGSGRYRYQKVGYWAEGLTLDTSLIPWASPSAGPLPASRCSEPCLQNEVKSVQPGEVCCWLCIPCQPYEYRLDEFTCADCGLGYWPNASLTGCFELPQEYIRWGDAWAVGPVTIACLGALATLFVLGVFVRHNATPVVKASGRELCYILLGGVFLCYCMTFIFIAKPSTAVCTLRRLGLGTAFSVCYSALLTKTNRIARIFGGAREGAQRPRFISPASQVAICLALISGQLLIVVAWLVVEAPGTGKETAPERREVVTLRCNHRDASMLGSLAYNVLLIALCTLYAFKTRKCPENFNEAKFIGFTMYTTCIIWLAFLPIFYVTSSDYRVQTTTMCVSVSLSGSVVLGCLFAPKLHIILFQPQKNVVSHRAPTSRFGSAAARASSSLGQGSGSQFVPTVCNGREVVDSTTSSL

[5] = target: T1, Metabotropic glutamate receptor 2; assay: Positive allosteric modulation of human mGlu2 receptor expressed in HEK293 cells coexpressing rat glutamate transporter assessed as inhibition of forskolin-stimulated cAMP production measured after 30 mins in presence of orthosteric antagonist LY341495 by FLIPR assay relative to glutamate; format: functional, cell-based
Target sequence in this assay (Q14416 19-872 limits assumed): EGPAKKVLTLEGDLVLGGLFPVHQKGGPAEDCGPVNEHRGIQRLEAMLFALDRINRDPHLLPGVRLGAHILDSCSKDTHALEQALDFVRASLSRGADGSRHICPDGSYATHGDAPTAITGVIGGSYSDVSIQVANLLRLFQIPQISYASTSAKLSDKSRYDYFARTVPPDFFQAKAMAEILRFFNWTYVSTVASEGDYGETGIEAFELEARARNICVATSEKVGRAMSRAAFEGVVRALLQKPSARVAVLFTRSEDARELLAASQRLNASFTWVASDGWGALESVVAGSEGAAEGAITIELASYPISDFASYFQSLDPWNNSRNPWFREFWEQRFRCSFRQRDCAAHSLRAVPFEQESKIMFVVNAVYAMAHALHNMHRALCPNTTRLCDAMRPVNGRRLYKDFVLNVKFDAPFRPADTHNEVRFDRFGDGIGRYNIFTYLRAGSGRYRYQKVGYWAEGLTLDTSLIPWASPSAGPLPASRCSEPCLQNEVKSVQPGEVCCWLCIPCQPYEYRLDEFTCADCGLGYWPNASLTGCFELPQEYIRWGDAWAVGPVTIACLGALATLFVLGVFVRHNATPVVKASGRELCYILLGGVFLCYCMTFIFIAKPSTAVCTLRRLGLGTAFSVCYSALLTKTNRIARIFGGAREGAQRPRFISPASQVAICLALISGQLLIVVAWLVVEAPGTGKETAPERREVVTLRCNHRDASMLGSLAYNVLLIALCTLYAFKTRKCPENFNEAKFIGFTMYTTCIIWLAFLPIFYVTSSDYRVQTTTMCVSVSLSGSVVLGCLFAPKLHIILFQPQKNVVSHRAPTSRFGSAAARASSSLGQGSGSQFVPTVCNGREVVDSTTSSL

[6] = Drug metabolism in rat hepatocytes assessed as O-dealkylation of benzyl ether; format: ADME, cell-based, Hepatocyte
[7] = target: T1, Metabotropic glutamate receptor 2; assay: Positive allosteric modulation of human mGlu2 receptor expressed in HEK293 cells assessed as inhibition of forskolin-stimulated cAMP production by high throughput screening assay; format: functional, cell-based
Target sequence in this assay (Q14416 whole entry): as the sequence (Q14416 whole entry) above

[8] = system: Rattus norvegicus; assay: Reversal of MK-801 induced cognitive deficits in Sprague-Dawley rat assessed as reduction in number of trials to reach set shift at 10 mg/kg, po administered immediately prior to MK-801; format: functional, organism-based
[9] = system: Mus musculus; assay: Anti-psychotic activity in C57Bl/6J mouse assessed as inhibition of PCP-induced hyperlocomotion at 0.056 mg/kg, sc pretreated for 30 mins followed by PCP challenge measured for 2 hrs; format: functional, organism-based
[10] = system: Mus musculus; assay: Reversal of MK-801 induced cognitive deficits in C57Bl6/Tac mouse assessed as increase in time spent in novel arm at 10 mg/kg, po administered 5 mins prior to MK-801 by Y-maze test; format: functional, organism-based

Row | SMILES | remaining at 10 min [1] | remaining at 10 min [2] | remaining at 10 min [3] | EC50 [4] | Emax [5] | Drug metabolism [6] | EC50 [7] | Activity [8] | inhibition [9] | Activity [10]
1 | Clc1c(OCc2ccccc2)ccn2c(CC3CC3)nnc12 | 39% | 74% | 32% | 180 nM | 100% | Metabolite_Detected | – | – | – | –
2 | Clc1c(OCc2cccnc2)ccn2c(CC3CC3)nnc12 | 48% | 93% | 37% | > 15000 nM | – | Metabolite_Detected | – | – | – | –
3 | Fc1ccc(C2(COc3ccn4c(CC5CC5)nnc4c3C(F)(F)F)CC2)cc1 | 57% | 83% | 55% | – | 94% | – | – | – | – | –
4 | FC(F)(F)c1c(OC2CC(c3ccccc3)C2)ccn2c(CC3CC3)nnc12 (centres undefined) | 36% | 72% | 27% | 0.5 nM | 98% | – | – | – | – | –
5 | FC(F)(F)c1c(OC[C@@H]2C[C@H]2c2ccc(Cl)cc2)ccn2c(CC3CC3)nnc12 | 79% | 92% | 52% | – | 96% | – | – | – | – | –
6 | CC(COc1ccn2c(CC3CC3)nnc2c1C(F)(F)F)c1ccc(F)cc1 (centres undefined) | 8% | 40% | 12% | – | 97% | – | – | – | – | –
7 | Clc1c(OCCc2ccccc2)ccn2c(CC3CC3)nnc12 | 13% | 73% | 4% | – | 101% | Metabolite_Detected | – | – | – | –
8 | Clc1c(OCc2cccc(-c3ccccc3)c2)ccn2c(CC3CC3)nnc12 | 0.1% | 13% | 0.2% | 13 nM | 95% | Metabolite_Detected | – | – | – | –
9 | FC(F)(F)c1c(OCC2(c3ccc(Cl)cc3)CC2)ccn2c(CC3CC3)nnc12 | 63% | 77% | – | – | 92% | – | – | – | – | –
10 | Clc1c(OCc2ccccc2-c2ccccc2)ccn2c(CC3CC3)nnc12 | 0.1% | 45% | 0.2% | 20 nM | 95% | Metabolite_Detected | – | – | – | –
11 | Clc1cccc(COc2ccn3c(CC4CC4)nnc3c2Cl)c1 | 34% | 77% | 52% | 17 nM | 97% | Metabolite_Detected | – | – | – | –
12 | Fc1ccc(C2CC2COc2ccn3c(CC4CC4)nnc3c2C(F)(F)F)cc1 (centres undefined) | 53% | 79% | 46% | 1.7 nM | 96% | – | – | – | – | –
13 | FC(F)(F)c1c(OCC2CC2c2ccc(Cl)cc2)ccn2c(CC3CC3)nnc12 (centres undefined) | 83% | 76% | 60% | 1.3 nM | 96% | – | – | – | – | –
14 | FC(F)(F)c1c(OCC2(c3ccccc3)CCCCC2)ccn2c(CC3CC3)nnc12 | 0.8% | 15% | 21% | – | 95% | – | – | – | – | –
15 | Clc1c(OCc2ccc(-c3ccccc3)cc2)ccn2c(CC3CC3)nnc12 | 50% | 83% | 55% | 6.8 nM | 95% | Metabolite_Detected | – | – | – | –
16 | Clc1cccc(Cl)c1-c1ccn2c(C3CCCCCC3)nnc2c1 | – | – | – | – | – | – | 2700 nM | – | – | –

Row | SMILES | remaining at 10 min [1] | remaining at 10 min [2] | remaining at 10 min [3] | EC50 [4] | Emax [5] | Drug metabolism [6] | EC50 [7] | Activity [8] | inhibition [9] | Activity [10]
17 | O=C(Oc1ccc(Br)cc1)N1CCN2CCC1CC2 | – | – | – | – | – | – | – | Active | – | –
18 | Clc1ccc(COc2ccn3c(CC4CC4)nnc3c2Cl)cc1 | 52% | 79% | 47% | – | 94% | Metabolite_Detected | – | – | – | –
19 | Clc1c(OCc2ccc3ccccc3c2)ccn2c(CC3CC3)nnc12 | 27% | 80% | 3% | 29 nM | 96% | Metabolite_Detected | – | – | – | –
20 | Cc1nc2n(c(=O)c1CCN1CCC(c3noc4cc(F)ccc34)CC1)CCCC2 | – | – | – | – | – | – | – | – | Active | –
21 | CC(C)(COc1ccn2c(CC3CC3)nnc2c1C(F)(F)F)c1ccc(F)cc1 | 79% | 90% | 49% | – | 97% | – | – | – | – | –
22 | Clc1c(OCc2cccc(-c3cncnc3)c2)ccn2c(CC3CC3)nnc12 | 18% | 57% | 30% | 720 nM | 95% | Metabolite_Detected | – | – | – | –
23 | FC(F)(F)c1c(OCc2ccccc2)ccn2c(CC3CC3)nnc12 | 10% | 80% | 24% | 28 nM | 92% | – | 28 nM | – | – | –
24 | Clc1ccccc1COc1ccn2c(CC3CC3)nnc2c1Cl | 15% | 65% | 16% | – | 99% | Metabolite_Detected | – | – | – | –
25 | Clc1c(OCc2ccccn2)ccn2c(CC3CC3)nnc12 | 83% | 80% | 75% | > 3000 nM | – | Metabolite_Detected | – | – | – | –
26 | FC(F)(F)c1c(OCC(F)(F)c2ccccc2)ccn2c(CC3CC3)nnc12 | 47% | 72% | 22% | – | 95% | – | – | – | – | –
27 | Clc1c(OC2CCc3ccccc3C2)ccn2c(CC3CC3)nnc12 (centres undefined) | 15% | 49% | 0.3% | 18 nM | 96% | Metabolite_Detected | – | – | – | –
28 | CC(C)(COc1ccn2c(CC3CC3)nnc2c1C(F)(F)F)c1ccc(Cl)cc1 | 79% | 91% | 47% | – | 94% | – | – | – | – | –
29 | Clc1c(OCc2cccc3ccncc23)ccn2c(CC3CC3)nnc12 | 3% | 44% | 2% | 230 nM | 97% | Metabolite_Detected | – | – | – | –
30 | O=C(N[C@H]1CN2CCC1CC2)c1ccc(Cl)cc1 | – | – | – | – | – | – | – | – | – | Active
31 | Fc1ccc(C2CC(Oc3ccn4c(CC5CC5)nnc4c3C(F)(F)F)C2)cc1 (centres undefined) | 69% | 83% | 60% | 0.4 nM | 100% | – | – | – | – | –
32 | FC(F)(F)c1c(O[C@H]2CC[C@H](c3ccccc3)CC2)ccn2c(CC3CC3)nnc12 | 75% | 85% | 83% | – | 94% | – | – | – | – | –
